Source: PubChem BioAssay AID2060610 (Molecular Pharmacology Branch, DTP, NCI, 2025)
“And” between values parts separate entries of the source, which are not always exact repeats. Equal values may be shown once.

System: 616215-338-R-J1-PDC complex spheroids, viability % test/control
Assay: Anticancer human tumor 616215-338-R-J1-PDC patient-derived colon adenocarcinoma cell line growth inhibition [CLK]
Settings: for viability, T/C: stronger effect = lower value; active = viability on the fitted dose curve at most 10% of control; inactive = the rest
Procedure, shortened: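 Multi-cell-type spheroids combined patient-derived tumor cells with HUVEC endothelial cells and human mesenchymal stem cells. Paired agents were dosed in half-log steps down from about clinical Cmax, or from 10 microM where Cmax was unknown.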

[1] = curve of first compound, second compound 0.0316 µM
[2] = curve of first compound, second compound 0.1 µM
[3] = curve of first compound, second compound 0.316 µM
[4] = curve of first compound, second compound 1 µM
[5] = curve of first compound, second compound 3.16 µM
[6] = curve of first compound, second compound 10 µM
[7] = second compound 0.0316 µM, first compound 0.0316 µM
[8] = second compound 0.0316 µM, first compound 0.1 µM
[9] = second compound 0.0316 µM, first compound 0.316 µM
[10] = second compound 0.0316 µM, first compound 1 µM
[11] = second compound 0.0316 µM, first compound 3.16 µM
[12] = second compound 0.0316 µM, first compound 10 µM
[13] = second compound 0.1 µM, first compound 0.0316 µM
[14] = second compound 0.1 µM, first compound 0.1 µM
[15] = second compound 0.1 µM, first compound 0.316 µM
[16] = second compound 0.1 µM, first compound 1 µM
[17] = second compound 0.1 µM, first compound 3.16 µM
[18] = second compound 0.1 µM, first compound 10 µM
[19] = second compound 0.316 µM, first compound 0.0316 µM
[20] = second compound 0.316 µM, first compound 0.1 µM
[21] = second compound 0.316 µM, first compound 0.316 µM
[22] = second compound 0.316 µM, first compound 1 µM
[23] = second compound 0.316 µM, first compound 3.16 µM
[24] = second compound 0.316 µM, first compound 10 µM
[25] = second compound 1 µM, first compound 0.0316 µM
[26] = second compound 1 µM, first compound 0.1 µM
[27] = second compound 1 µM, first compound 0.316 µM
[28] = second compound 1 µM, first compound 1 µM
[29] = second compound 1 µM, first compound 3.16 µM
[30] = second compound 1 µM, first compound 10 µM
[31] = second compound 3.16 µM, first compound 0.0316 µM
[32] = second compound 3.16 µM, first compound 0.1 µM
[33] = second compound 3.16 µM, first compound 0.316 µM
[34] = second compound 3.16 µM, first compound 1 µM
[35] = second compound 3.16 µM, first compound 3.16 µM
[36] = second compound 3.16 µM, first compound 10 µM
[37] = second compound 10 µM, first compound 0.0316 µM
[38] = second compound 10 µM, first compound 0.1 µM
[39] = second compound 10 µM, first compound 0.316 µM
[40] = second compound 10 µM, first compound 1 µM
[41] = second compound 10 µM, first compound 3.16 µM
[42] = second compound 10 µM, first compound 10 µM
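Note: spheroids exposed to agents for 7 days.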
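Throughout, for viability, T/C: 100% = DMSO vehicle wells.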

CC(C)CC(NC(=O)C(Cc1ccccc1)NC(=O)c1cnccn1)B(O)O (configuration not stated) + CNC(=O)c1ccc(Nc2nc(OC3CCCC3)c3c(-c4ccc5nc(C)oc5c4)c[nH]c3n2)c(OC)c1
0.00428 µM: IC50 [2]
inactive: viability, T/C (second compound 0.0316 µM, first compound 0.000949 µM) 93.4% | viability, T/C (second compound 0.0316 µM, first compound 0.003 µM) 110% | viability, T/C (second compound 0.1 µM, first compound 0.000949 µM) 55.6% | viability, T/C (second compound 0.1 µM, first compound 0.003 µM) 88.9% | viability, T/C (second compound 0.316 µM, first compound 0.000949 µM) 45.9% | viability, T/C (second compound 0.316 µM, first compound 0.003 µM) 38.4% | viability, T/C (second compound 1 µM, first compound 0.000949 µM) 45.3% | viability, T/C (second compound 1 µM, first compound 0.003 µM) 29.9% | viability, T/C (second compound 3.16 µM, first compound 0.000949 µM) 45.7% | viability, T/C (second compound 3.16 µM, first compound 0.003 µM) 18.6% | viability, T/C (second compound 10 µM, first compound 0.000949 µM) 45.9% | viability, T/C (second compound 10 µM, first compound 0.003 µM) 19.5%
0.0054 µM: IC50 [1]
< 0.000949 µM: IC50 [3] | IC50 [4] | IC50 [5] | IC50 [6]
active: viability, T/C (second compound 0.0316 µM, first compound 0.00949 µM) 0.37% | viability, T/C (second compound 0.0316 µM, first compound 0.03 µM) 0.24% | viability, T/C (second compound 0.0316 µM, first compound 0.0949 µM) 0.24% | viability, T/C (second compound 0.0316 µM, first compound 0.3 µM) 1.23% | viability, T/C (second compound 0.1 µM, first compound 0.00949 µM) 0.21% | viability, T/C (second compound 0.1 µM, first compound 0.03 µM) 0.22% | viability, T/C (second compound 0.1 µM, first compound 0.0949 µM) 0.18% | viability, T/C (second compound 0.1 µM, first compound 0.3 µM) 0.5% | viability, T/C (second compound 0.316 µM, first compound 0.00949 µM) 0.2% | viability, T/C (second compound 0.316 µM, first compound 0.03 µM) 0.18% | viability, T/C (second compound 0.316 µM, first compound 0.0949 µM) 0.15% | viability, T/C (second compound 0.316 µM, first compound 0.3 µM) 0.86% | viability, T/C (second compound 1 µM, first compound 0.00949 µM) 0.19% | viability, T/C (second compound 1 µM, first compound 0.03 µM) 0.15% | viability, T/C (second compound 1 µM, first compound 0.0949 µM) 1.71% | viability, T/C (second compound 1 µM, first compound 0.3 µM) 1.14% | viability, T/C (second compound 3.16 µM, first compound 0.00949 µM) 0.16% | viability, T/C (second compound 3.16 µM, first compound 0.03 µM) 0.16% | viability, T/C (second compound 3.16 µM, first compound 0.0949 µM) 0.18% | viability, T/C (second compound 3.16 µM, first compound 0.3 µM) 1.5% | viability, T/C (second compound 10 µM, first compound 0.00949 µM) 0.22% | viability, T/C (second compound 10 µM, first compound 0.03 µM) 0.18% | viability, T/C (second compound 10 µM, first compound 0.0949 µM) 1.53% | viability, T/C (second compound 10 µM, first compound 0.3 µM) 2.83%

CC1(C)CCC(CN2CCN(c3ccc(C(=O)NS(=O)(=O)c4ccc(NCC5CCOCC5)c([N+](=O)[O-])c4)c(Oc4cnc5[nH]ccc5c4)c3)CC2)=C(c2ccc(Cl)cc2)C1
inactive: viability, T/C (compound 0.0316 µM) 88.4% and 102% | viability, T/C (compound 0.1 µM) 95.6% and 102% | viability, T/C (compound 0.316 µM) 97.5% and 98.5% | viability, T/C (compound 1 µM) 90.2% and 96.7% | viability, T/C (compound 3.16 µM) 86.7% and 87.4%
5.25 µM and > 10 µM: IC50 (curve of compound)

C=C(F)C(=O)N1CCN(c2nc(OCC3CCCN3C)nc3c2CCN(c2cccc4cccc(Cl)c24)C3)CC1CC#N (configuration not stated) + CN1CCN(c2cc(C(=O)Nc3cc4cc(-c5cnn(C)c5)ccc4cn3)ccn2)CC1
5.87 µM: IC50 [1]
6.07 µM: IC50 [2]
active: viability, T/C [12] 0.26% | viability, T/C [18] 0.19% | viability, T/C [24] 0.12% | viability, T/C [25] 0.28% | viability, T/C [26] 0.24% | viability, T/C [27] 0.31% | viability, T/C [28] 0.16% | viability, T/C [29] 0.14% | viability, T/C [30] 0.11% | viability, T/C [31] 0.16% | viability, T/C [32] 0.16% | viability, T/C [33] 0.16% | viability, T/C [34] 0.18% | viability, T/C [35] 2.55% | viability, T/C [36] 3.36% | viability, T/C [37] 0.24% | viability, T/C [38] 0.21% | viability, T/C [39] 0.22% | viability, T/C [40] 0.25% | viability, T/C [41] 1.31% | viability, T/C [42] 0.21%
inactive: viability, T/C [7] 102% | viability, T/C [8] 109% | viability, T/C [9] 105% | viability, T/C [10] 106% | viability, T/C [11] 116% | viability, T/C [13] 114% | viability, T/C [14] 120% | viability, T/C [15] 107% | viability, T/C [16] 116% | viability, T/C [17] 119% | viability, T/C [19] 35.1% | viability, T/C [20] 45.4% | viability, T/C [21] 40.2% | viability, T/C [22] 38.8% | viability, T/C [23] 11.3%
< 0.0316 µM: IC50 [3] | IC50 [4] | IC50 [5] | IC50 [6]

CC1COCCN1c1cc(C2(S(C)(=N)=O)CC2)nc(-c2ccnc3[nH]ccc23)n1 (configuration not stated) + CN1CCN(c2cc(C(=O)Nc3cc4cc(-c5cnn(C)c5)ccc4cn3)ccn2)CC1
active: viability, T/C [25] 0.14% | viability, T/C [26] 2.28% | viability, T/C [27] 2.21% | viability, T/C [28] 0.15% | viability, T/C [29] 0.1% | viability, T/C [30] 2.62% | viability, T/C [31] 0.14% | viability, T/C [32] 0.12% | viability, T/C [33] 0.15% | viability, T/C [34] 0.14% | viability, T/C [35] 2.05% | viability, T/C [36] 3.08% | viability, T/C [37] 0.16% | viability, T/C [38] 0.15% | viability, T/C [39] 0.21% | viability, T/C [40] 0.23% | viability, T/C [41] 0.23% | viability, T/C [42] 0.24%
4.97 µM: IC50 [2]
< 0.0316 µM: IC50 [3] | IC50 [4] | IC50 [5] | IC50 [6]
> 10 µM: IC50 [1]
inactive: viability, T/C [7] 98.6% | viability, T/C [8] 99.8% | viability, T/C [9] 95.3% | viability, T/C [10] 105% | viability, T/C [11] 102% | viability, T/C [12] 54.7% | viability, T/C [13] 117% | viability, T/C [14] 106% | viability, T/C [15] 96.6% | viability, T/C [16] 102% | viability, T/C [17] 60.5% | viability, T/C [18] 33.5% | viability, T/C [19] 34.7% | viability, T/C [20] 29.4% | viability, T/C [21] 28.4% | viability, T/C [22] 21.3% | viability, T/C [23] 23.9% | viability, T/C [24] 15.4%
